Experimental data taken from EP4650351A1, “INHIBITOR OF COMPLEMENT FACTOR B” (Nanjing Chia Tai Tianqing Pharmaceutical Co., Ltd., priority 2023, dated 2024).
pIC50: −log10 of the molar value.

Experiments:
[1] = target: T1, human complement factor B (Homo sapiens, UniProt P00751); assay: TR-FRET competitive binding assay of human complement factor B (Cy5-labeled probe); conditions: inhibitory activity against complement factor B; biotin-labeled factor B 25 nM, Cy5 probe 75 nM, 4 °C
T1 construct: purchased ComplementTech A135

[2] = Pharmacokinetic study in mice; type: in vivo; conditions: mouse, 10 mg/kg, PO (10 mpk), male ICR (CD-1) mice, plasma; for AUC(0-t): read-out: AUC0-24
Procedure: Experimental Example 3: Pharmacokinetic study in mice
Purpose of the experiment: To investigate the plasma pharmacokinetics in male ICR (CD-1) mice after single intravenous administration and gavage administration of the compounds of the present disclosure.
Experimental animals: Male ICR (CD-1) mice, body weight 32-35 g; supplier: Vital River Laboratory Animal Technology Co., Ltd.
Experimental procedures: Intravenous Administration (IV); Oral Gavage (PO); the dose was 10 mg/kg (vehicle: water (containing 0.5% methylcellulose (w/v) and 0.5% Tween 80 (v/v)).
Sample collection: At each set time point, 40 µL of blood was collected from the orbital sinus of the experimental animals. Whole blood samples were placed in anticoagulant tubes containing EDTA-K2. The whole blood samples were centrifuged at 1500 g for 10 min to separate plasma. The upper-layer plasma samples were collected into sample tubes for LC-MS/MS analysis.
Data analysis: Plasma concentrations were processed using the non-compartmental model in WinNonlin™Version6.3 (Pharsight, Mountain View, CA) pharmacokinetic software. Pharmacokinetic parameters Cl, T1/2, Cmax, and AUC0-24 were calculated using the linear-log trapezoidal method, and the results were shown in the table below. Table 3. Results of the pharmacokinetic study

[3] = system: alternative complement pathway in human serum; assay: Complement deposition assay of serum alternative pathway (Wieslab Complement system Alternative pathway kit); type: biochemical; conditions: human serum diluted 18-fold, 37 °C 60 minutes, absorbance 405 nm
Procedure: The Wieslab® Complement system Alternative pathway kit (WIESLAB® Complement system Alternative pathway AP330 RUO) was used to detect the inhibitory activity of the compounds on the alternative complement pathway in human serum. Human serum was diluted 18-fold with the kit diluent. The diluted serum was added to a 96-well plate at 130 µL/well. Using a compound titrator (Tecan, D300e), test compounds at corresponding concentrations were added. The test concentration of the compounds started at 10 µM, with 3-fold serial dilution for 6 concentration points, detected in single wells. The DMSO ratio was uniformly adjusted to 0.1% using DMSO in all drug-treated wells. In the positive control wells, 0.1% DMSO and 130 µL of diluted serum were added; in the negative control wells, 0.1% DMSO and 130 µL of the kit diluent were added. The mixtures were pre-incubated at room temperature for 15 min. The incubated mixtures were transferred to the 96-well plate provided by the kit at 100 µL per well, incubated at 37 °C for 60 minutes, and the liquid in the wells was discarded. 300 µL of the washing solution in the kit was added to each well. The wells were washed three times. 100 µL of the conjugated antibody Conjugate in the kit was added to each well, and it was incubated at room temperature for 30 minutes. The liquid in the wells was removed. 300 µL of the washing solution in the kit was added to each well and the wells were washed three times. 100 µL of the substrate solution was added to each well and incubated at room temperature for 30 minutes. […] Table 2. Results of complement deposition in serum alternative pathway

T1 sequence (P00751 26-764): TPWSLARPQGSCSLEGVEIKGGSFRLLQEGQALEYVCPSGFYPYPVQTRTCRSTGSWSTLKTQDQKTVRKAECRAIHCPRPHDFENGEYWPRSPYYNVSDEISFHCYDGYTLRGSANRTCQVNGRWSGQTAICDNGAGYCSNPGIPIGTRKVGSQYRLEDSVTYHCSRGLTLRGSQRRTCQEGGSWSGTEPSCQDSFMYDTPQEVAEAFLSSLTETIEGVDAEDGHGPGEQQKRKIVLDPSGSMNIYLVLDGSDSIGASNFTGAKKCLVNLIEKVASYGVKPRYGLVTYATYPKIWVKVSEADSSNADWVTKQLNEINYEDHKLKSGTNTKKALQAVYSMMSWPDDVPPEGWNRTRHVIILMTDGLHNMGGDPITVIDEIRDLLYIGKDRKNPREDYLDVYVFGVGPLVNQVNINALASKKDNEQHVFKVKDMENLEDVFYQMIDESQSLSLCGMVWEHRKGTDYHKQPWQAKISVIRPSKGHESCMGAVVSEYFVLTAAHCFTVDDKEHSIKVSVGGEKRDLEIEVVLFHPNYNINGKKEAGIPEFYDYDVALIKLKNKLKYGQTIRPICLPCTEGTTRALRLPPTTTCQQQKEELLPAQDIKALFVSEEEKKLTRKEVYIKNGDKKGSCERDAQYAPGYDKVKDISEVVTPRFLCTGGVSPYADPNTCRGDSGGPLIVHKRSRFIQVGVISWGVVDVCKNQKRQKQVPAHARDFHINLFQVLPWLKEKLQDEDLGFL

Work on COc1cc(C)c2[nH]ccc2c1CN1CCN(C2CC(C(F)(F)F)C2)CC1c1ccc(C(=O)O)cc1 (racemic) [Example 10-2, (±)4-(1-((5-methoxy-7-methyl-1H-indol-4-yl)methyl)-4-(3-(trifluoromethyl)cyclobutyl)piperazin-2-yl)benzoic acid] yielded a pIC50 [1] of 6.93.

Compound Cc1cc(OC(F)F)c(O[C@@H]2CCN(CC(F)F)C[C@H]2c2ccc(C(=O)O)cc2)c2cc[nH]c12 [Example 29, 4-((3R,4R)-1-(2,2-difluoroethyl)-4-((5-(difluoromethoxy)-7-methyl-1H-indol-4-yl)oxy)piperidin-3-yl) benzoic acid] has a pIC50 [1] of 7.51.

COc1cc(C)c2[nH]ccc2c1CN1CCN(CC2CC2(F)F)CC1c1ccc(C(=O)O)cc1 (racemic) [Example 5, (±)4-(4-((2,2-difluorocyclopropyl)methyl)-1-((5-methoxy-7-methyl-1H-indol-4-yl)methyl)piperazin-2-yl)benzoic acid] showed a pIC50 [1] of 6.69.

[2H]C([2H])([2H])Oc1cc(C)c2[nH]ccc2c1O[C@@H]1CCN(CC(F)F)C[C@H]1c1ccc(C(=O)O)cc1 [Example 26, 4-((3R,4R)-1-(2,2-difluoroethyl)-4-((5-(methoxy-d3)-7-methyl-1H-indol-4-yl)oxy)piperidin-3-yl) benzoic acid] showed a Cmax [2] of 944 ng/mL, an AUC(0-t) [2] of 4960 ng·h/mL and a pIC50 [1] of 7.92.

With CCOC1CCC(Cc2c(OC)cc(C)c3[nH]ccc23)N(c2ccc(C(=O)O)cc2)C1 (single isomer, unassigned) [Example 32a-2, 4-(5-ethoxy-2-((5-methoxy-7-methyl-1H-indol-4-yl)methyl)piperidin-1-yl)benzoic acid] the pIC50 [1] was 6.22.

Compound COc1cc(C)c2[nH]ccc2c1O[C@H]1CCN(CC(F)F)C[C@@H]1c1ccc(C(=O)O)cc1 [Example 13a-1, 4-((3S,4S)-1-(2,2-difluoroethyl)-4-((5-methoxy-7-methyl-1H-indol-4-yl)oxy)piperidin-3-yl)benzoic acid] has a pIC50 [1] of 6.01.

With Cc1cc(OC(F)(F)F)c(O[C@@H]2CCN(CC(F)F)C[C@H]2c2ccc(C(=O)O)cc2)c2cc[nH]c12 [Example 30, 4-((3R,4R)-1-(2,2-difluoroethyl)-4-((7-methyl-5-(trifluoromethoxy)-1H-indol-4-yl)oxy)piperidin-3-yl)benzoic acid] the pIC50 [1] was 7.14.

With COc1cc(C)c2[nH]ccc2c1CN1CCN(CCC(F)(F)F)CC1c1ccc(C(=O)O)cc1 (racemic) [Example 9, (±)4-(1-((5-methoxy-7-methyl-1H-indol-4-yl)methyl)-4-(3,3,3-trifluoropropyl)piperazin-2-yl) benzoic acid] the pIC50 [1] was 7.55.

COc1cc(C)c2[nH]ccc2c1CN1CCN(CC(F)F)CC1c1ccc(C(=O)O)cc1 (racemic) [Example 6-2, (±)4-(4-(2,2-difluoroethyl)-1-((5-methoxy-7-methyl-1H-indol-4-yl)methyl)piperazin-2-yl)benzoic acid] showed a pIC50 [3] of 6.67.

In the case of COc1cc(C)c2[nH]ccc2c1CN1CCN(CC(F)F)CC1c1ccc(C(=O)O)cc1 (racemic) [Example 6-1, (±)4-(4-(2,2-difluoroethyl)-1-((5-methoxy-7-methyl-1H-indol-4-yl)methyl)piperazin-2-yl)benzoic acid], the pIC50 [1] was < 6.00.

Work on [2H]C([2H])([2H])Oc1cc(C)c2[nH]ccc2c1O[C@@H]1CCN(CC(F)(F)F)C[C@H]1c1ccc(C(=O)O)cc1 [Example 27, 4-((3R,4R)-4-((5-(methoxy-d3)-7-methyl-1H-indol-4-yl)oxy)-1-(2,2,2-trifluoroethyl)piperidin-3-yl) benzoic acid] yielded a pIC50 [1] of 8.04.

CCCN1CCN(Cc2c(OC)cc(C)c3[nH]ccc23)C(c2ccc(C(=O)O)cc2)C1 (racemic) [Example 1-2, (±)4-(1-((5-methoxy-7-methyl-1H-indol-4-yl)methyl)-4-propylpiperazin-2-yl)benzoic acid] showed a pIC50 [3] of 6.88.

CCOC1CCC(Oc2c(OC)cc(C)c3[nH]ccc23)C(c2ccc(C(=O)O)cc2)C1 (single isomer, unassigned) [Example 20a-4] showed a pIC50 [1] of 7.91 and a pIC50 [3] of 7.06.

With COc1cc(C)c2[nH]ccc2c1O[C@H]1CCN(CCC(F)(F)F)C[C@@H]1c1ccc(C(=O)O)cc1 (single isomer, unassigned) [Example 15a-2] the pIC50 [3] was 7.26.

In the case of COc1cc(C)c2[nH]ccc2c1CN1CCN(C2COC2)CC1c1ccc(C(=O)O)cc1 (racemic) [Example 3, (±)-4-(1-((5-methoxy-7-methyl-1H-indol-4-yl)methyl)-4-(oxetan-3-yl)piperazin-2-yl)benzoic acid], the pIC50 [1] was < 6.00.

CCOC1CCC(Cc2c(OC)cc(C)c3[nH]ccc23)N(c2ccc(C(=O)O)cc2)C1 (single isomer, unassigned) [Example 32a-4, 4-(5-ethoxy-2-((5-methoxy-7-methyl-1H-indol-4-yl)methyl)piperidin-1-yl)benzoic acid] showed a pIC50 [1] of 6.55.

Cc1cc(OC(F)F)c(OC2CCN(CCC(F)(F)F)CC2c2ccc(C(=O)O)cc2)c2cc[nH]c12 (single isomer, unassigned) [Example 25-2] gave a pIC50 [1] of 7.62.

In the case of CCOC1CCC(Sc2c(OC)cc(C)c3[nH]ccc23)C(c2ccc(C(=O)O)cc2)C1 (single isomer, unassigned) [Example 19b-2], the pIC50 [1] was 8.10 and the pIC50 [3] was 6.98.

Cc1cc(OC(F)(F)F)c(O[C@@H]2CCN(CC(F)(F)F)C[C@H]2c2ccc(C(=O)O)cc2)c2cc[nH]c12 [Example 31, 4-((3R,4R)-4-((7-methyl-5-(trifluoromethoxy)-1H-indol-4-yl)oxy)-1-(2,2,2-trifluoroethyl)piperidin-3-yl)benzoic acid] gave a pIC50 [1] of 6.37.

In the case of CCOC1CCC(Sc2c(OC)cc(C)c3[nH]ccc23)C(c2ccc(C(=O)O)cc2)C1 (single isomer, unassigned) [Example 19a-4], the pIC50 [1] was 6.59.

For COc1cc(C)c2[nH]ccc2c1SC1CCN(CC(F)F)CC1c1ccc(C(=O)O)cc1 (single isomer, unassigned) [Example 16-4], the pIC50 [1] was 6.71.

CCO[C@H]1CCN(Cc2c(OC)cc(C)c3[nH]ccc23)[C@H](c2ccc(C(=O)O)cc2)C1 [LNP023, reference compound] gave a Cmax [2] of 1160 ng/mL and an AUC(0-t) [2] of 4110 ng·h/mL.

For [2H]C([2H])([2H])Oc1cc(C)c2[nH]ccc2c1O[C@H]1CCN(CCC(F)(F)F)C[C@@H]1c1ccc(C(=O)O)cc1 (single isomer, unassigned) [Example 17a-2], the Cmax [2] was 679 ng/mL and the AUC(0-t) [2] was 6480 ng·h/mL.

For COc1cc(C)c2[nH]ccc2c1CN1CCN(CC2CC2)CC1c1ccc(C(=O)O)cc1 (racemic) [Example 4, (±)4-(4-(cyclopropylmethyl)-1-((5-methoxy-7-methyl-1H-indol-4-yl)methyl)piperazin-2-yl)benzoic acid], the pIC50 [1] was < 6.00.

Compound COc1cc(C)c2[nH]ccc2c1CN1CCN(CC(F)(F)F)CC1c1ccc(C(=O)O)cc1 (racemic) [Example 11-2, (±)4-(1-((5-methoxy-7-methyl-1H-indol-4-yl)methyl)-4-(2,2,2-trifluoroethyl)piperazin-2-yl) benzoic acid] has a pIC50 [1] of 7.15.

Compound CCOC1CCC(Sc2c(OC)cc(C)c3[nH]ccc23)C(c2ccc(C(=O)O)cc2)C1 (single isomer, unassigned) [Example 19a-2] has a pIC50 [1] of 6.65.

Work on COc1cc(C)c2[nH]ccc2c1O[C@@H]1CCN(CC(F)(F)F)C[C@H]1c1ccc(-c2n[nH]c(=O)o2)cc1 [Example 33, 5-(4-((3R,4R)-4-((5-methoxy-7-methyl-1H-indol-4-yl)oxy)-1-(2,2,2-trifluoroethyl)piperidin-3-yl)phenyl)-1,3,4-oxadiazol-2(3H)-one] yielded a pIC50 [1] of 7.63.

Work on Cc1cc(OC(F)F)c(O[C@@H]2CCN(CC(F)(F)F)C[C@H]2c2ccc(C(=O)O)cc2)c2cc[nH]c12 [Example 28, 4-((3R,4R)-4-((5-(difluoromethoxy)-7-methyl-1H-indol-4-yl)oxy)-1-(2,2,2-trifluoroethyl)piperidin-3-yl)benzoic acid] yielded a pIC50 [1] of 7.34.

In the case of CCOC1CCC(Sc2c(OC)cc(C)c3[nH]ccc23)C(c2ccc(C(=O)O)cc2)C1 (single isomer, unassigned) [Example 19b-4], the pIC50 [1] was 6.75.
